Assay results reported in publication PMC4106781, “Efficacy of Selective PDE4D Negative Allosteric Modulators in the Object Retrieval Task in Female Cynomolgus Monkeys (Macaca fascicularis)” (PLoS ONE, 2014).

Tests used:
[1] = test system: NHPs; settings: cited from earlier work
[2] = test system: female Cynomolgus monkeys; assay: Clinical observations (retching, emesis, salivation) during OR and PK studies; format: in vivo, Cynomolgus macaques (Macaca fascicularis); settings: 0.03 mg/kg IM; one animal (5B09), 20 minutes post dose
Experimental: • Week 1: Animals were habituated to intramuscular injections daily using the ‘rolipram’ vehicle formulation (10% solutol (w/v), 90% saline vehicle in a 0.1 mL/Kg dose volume) Monday through Friday, and a single baseline OR trial evaluation was performed on Wednesday (OR4) (Figure 2A). Animals were dosed with vehicle 30 minutes prior to this behavioural evaluation. • Weeks 2 to 5: Evaluation of rolipram in OR task. Following the stable baseline performance establishment (OR1 – 4), all animals were administered the 3 doses of rolipram (0.003, 0.01 and 0.03 mg/Kg) or vehicle intramuscularly 30 minutes before evaluation on the OR task, every Wednesday through Weeks 2–5 (OR5-8). All animals were dosed with vehicle on the preceding Monday and Tuesday to keep them habituated to the injections and avoid any Pavlovian conditioning to any pro-emetic effects of treatment, although no OR testing was carried out on those days. Treatment was administered at approximately the same time each day and administered via the intramuscular route at a volume of 0.1 mL/kg. […]
Animals were closely monitored for the duration of the study, and were videotaped during task performance. Body weights were monitored weekly. Clinical observations were recorded prior to dose administration and after the completion of each OR task. […]

[3] = test system: female Cynomolgus monkeys; assay: Object retrieval (OR) detour task; format: in vivo, Cynomolgus macaques (Macaca fascicularis)
Text: A total of n = 8 female Cynomolgus monkeys aged 4–6 years were trained in the OR task and were used for these studies, following a cross-over design. Animals were trained to ensure adequate and stable performance during the dosing studies. Animals were individually housed prior to the initiation of the study. Animals were habituated to the oral gavage method using positive reinforcement techniques for a minimum of 2 weeks prior to the initiation of OR testing to mitigate any adverse impact on behaviour. To ensure accurate dosing each individual was momentarily restrained in a ‘standing’ type primate chair to allow easy and gentle passage of the gavage tube. The oral doses were administered in a dose volume of 1.0 mL/Kg which was followed with 5 mL of purified water to ensure no residual compound formulation remained in the gavage tube. During dose habituation and the study the same study personnel administered the compounds and thus a non-stressful, familiar routine for the animals was achieved.
The OR task, [55] requires the subject to retrieve a food reward from a clear acrylic box (dimensions = 5×5×5 cm) with one open side which is positioned in front of the subject on a metal holder fixed to the outside of the home cage. The cube is presented to the subject with the open side facing left, right, or toward the monkey in a randomised set list of easy versus difficult trials. Food rewards (raisins or cubes of fruit pieces 1–2 cm^2) were placed on the outer edge, inner edge, line of sight (all easy), or deep within the box (difficult). Each test session consisted of 17 trials, with an initial Easy phase of 3 easy trials followed by a Random phase of 9 trials (4 difficult and 5 easy, presented randomly for each session), followed by a Difficult phase of 4 difficult trials and finally one final Easy Trial (Figure 2A). The final easy trial was included for reward purposes and although the number of attempts was recorded the data were not used for analysis. For successive test sessions, the subject was presented with the trials in an order exactly the reverse of the previous session (previous left side exposure became right side exposure and vice-versa). Individual trials within one OR session were terminated if there were no reaches or successful retrieval of the reward within 2 minutes by the subject. The acrylic box was cleaned between trials to minimize cues which may influence subsequent task performance through easier identification of the cube entrance.
Animals were habituated to the metal frame prior to introducing the OR cube. During training, the animals were exposed to the OR trials as depicted in Figure 2A for 4 occasions (twice a week- OR trial # T1-T4 – data not shown). Importantly, during this period of training, all animals acquired the rewards even after an incorrect first reach. OR evaluations were then subsequently conducted once per week to discourage learning and thus ensure no performance shift during the pharmacology study (Figure 2B). […]
Baseline performance was targeted to be an average, stable performance of >50% correct responses in the easy tasks, with less than 40% correct responses in the difficult tasks (Figure 2B). All animals evaluated during this phase met these criteria by the end of the training session, with the exception of one animal, which was a baseline ‘high performer’ on difficult trials (Animal 3939). […]

[4] = repeat measures ANOVA, dose group as factor

For `COc1ccc(C2CNC(=O)C2)cc1OC1CCCC1` (stereo not drawn) [rolipram, Rolipram], the retching ([1]; 0.05 mg/kg IM, separate study, ref Maccine, personal communication) is given as “all animals retching”, the emesis ([1]; 0.06 mg/kg) is given as “emesis” and the “emesis (monkeys affected)” value ([1]; 0.1 mg/kg) is given as 12 of 14. The adverse reactions [2] was “Retching and severe salivation”, the “mean percent correct first reaches, difficult trials (effect vs vehicle)” value ([3]; 0.01 mg/kg IM) was “significance was not observed” and the “mean percent correct first reaches, difficult trials” value ([3]; 0.03 mg/Kg IM, 30 min before OR, mean ± SEM, vehicle 22±8%) was 42±8%. The “mean percent correct first reach, easy level trials (effect of dosing)” value [3, 4] was “No significant improvement”, the “number of barrier reaches, difficult trials (effect of dosing)” value [3, 4] was “No significant change” and the “total number of reaches, difficult trials (effect of dosing)” value [3, 4] was “No significant change”.
